In patent US11707440B2 (priority 2017, dated 2023):
Where “and” joins values, the source holds several entries; their conditions need not be identical. Equal entries are not always repeated. Entries after “also recorded” stand apart in the source; their conditions may differ. Where two headings read alike, the source gives them in different places. Marks after values point to notes of the source that are not given here.

Experiments:
[1] = for Stock solution stability: stock solutions
Excerpt: This example provides an LC-MS/MS method for the determination of ketamine and norketamine in sodium heparin human plasma using ketamine-d4 and norketamine-d4 as the respective internal standards (IS).

[2] = tested on: adult female Sprague Dawley rats, PCG/RSC; conditions: 3 hours after a single intraperitoneal injection (Jevtovic-Todorovic 2000); cited from earlier work
[3] = Maximum solubility of esketamine HCl; conditions: room temperature, pH 4.5; factor 1.15
Description: The clinical investigational product is an aqueous solution of the drug substance, esketamine hydrochloride (HCl). This formulation is administered intranasally to patients using a dual nasal spray device, which delivers one spray into each nostril. […] The formulation was stored at 37° C. for stability reasons until dosing.

[4] = tested on: female Sprague-Dawley rats, PCG/RSC of the brain; test: Single dose neurotoxicity study, intranasal instillation; conditions: for Clinical observation: Abnormal respiration / Clinical observation: Ataxia / Clinical observation: Catalepsy / Clinical observation: Chromodacryorrhea / Clinical observation: Decreased general activity / Clinical observation: Decubitus / Clinical observation: Increased general activity / Clinical observation: Narrowed palpebral fissure / Clinical observation: Piloerection / Clinical observation: Salivation (out of normal) / Clinical observation: audible respiration / Clinical observation: bradypnoea: single dose intranasal
Description: Esketamine HCl was instilled intranasally at doses of 0 (vehicle), 36, 54 or 72 mg (expressed as esketamine base) to female rats on a single day. The dose levels were obtained by 2, 3 or 4 subsequent intranasal instillations, respectively, into both nostrils at a volume of 50 μL per nostril. At each instillation, the second nostril was dosed immediately after the first nostril. The interval between subsequent instillations into both nostrils was 5 minutes.
The vehicle control group received 4 subsequent intranasal instillations of the vehicle into both nostrils (50 μL per nostril) with 5-minute intervals.
The injection volume was 5 mL/kg.
The vehicle- and the 36 and 54 mg-dosed groups consisted of 24 animals per group, while the 72 mg-dosed and positive control groups involved 30 animals per group. Four satellite animals were added to the esketamine HCl-dosed groups of main study animals for toxicokinetic (TK) purposes. In these animals the plasma exposure to esketamine was measured on the day of dosing at various time points up to and including 24 hours after the first instillation.
Prior to the perfusion, rats were anesthetized with isoflurane. After injection of 0.1 ml heparin, the blood of the rat was flushed out with a physiological saline solution by intraarterial insertion of a needle in the abdominal aorta. Thereafter the rat was perfused with glutaraldehyde 3% in potassium phosphate 0.09M and 1.4% sucrose. Due to logistic constraints at maximum 30 animals could undergo the whole-body perfusion procedure on a given day. Therefore, a staggered start of treatment was applied to all 5 groups of main study animals. Consequently, subgroups of 4 main study animals of the vehicle- and 36 and 54 mg-dosed groups, and 5 main study animals of the 72 mg-dosed and positive control groups, were dosed on 6 consecutive days, respectively.
The vehicle control, positive control, and esketamine HCl-dosed animals were sacrificed at either 48 hours (i.e., the first 12 or 15 rats per group) or 96 hours after the dose administration time (i.e., the last 12 or 15 rats per group). The brain tissue of the vehicle control-, positive control- and esketamine HCl-treated rats were processed at the same time and handled in the same way in batches of 4 or 5 animals per group.
(§1) Furthermore, clinical observations were recorded for the esketamine HCl-dosed rats on the day of dosing at 0 till 5 minutes, 15 and 30 minutes, and at 1, 2, 4, 6 hours post-dose, at the end of the working day and at 24 hours after the last instillation in the single dose study and on the first day of dosing, after one week and towards the end of the dosing period in the repeated dose study. Body weight and body weight gain were measured daily. Food consumption was measured weekly in the repeated dose study.
(§2) On the day of terminal kill, a complete physical examination was performed on the rats in fasted condition and body weight was recorded. The surviving animals were anaesthetized by inhalation of an isoflurane (IsoFlo® Zoetis, Belgium)/oxygen mixture and killed by exsanguination via the carotid artery. […] All terminally killed rats or those killed pre-terminally were perfused with 4% paraformaldehyde in the single dose study and with glutaraldehyde 3% in potassium phosphate buffer 0.09 M with 1.4% sucrose in the repeated dose study.
(§3) Brain tissue was sampled and processed routinely. The trimmed and embedded tissue was sectioned and stained with hematoxylin-eosin (HE). Histoprocessing and staining were carried out in three batches of 4 animals per group (each batch thus containing 4 animals from vehicle control-, positive control- and the three esketamine HCl-treated groups). In the single dose study duplicate brain sections were stained with Fluoro-Jade (FJ).
All tissues showing gross abnormalities were examined macroscopically.

[5] = tested on: female Sprague-Dawley rats, PCG/RSC of the brain; test: 14-day repeated dose neurotoxicity study, intranasal instillation; conditions: for Clinical observation: Abnormal respiration / Clinical observation: Ataxia / Clinical observation: Chromodacryorrhea / Clinical observation: Decreased general activity / Clinical observation: Decubitus / Clinical observation: Increased general activity / Clinical observation: Salivation (out of normal) / Clinical observation: audible respiration / Clinical observation: bradypnoea: 14 days
Description: Esketamine HCl was administered into each nostril of female rats at a volume of 50 μl per nostril either once, twice or thrice daily by intranasal instillation for 14 consecutive days at doses of 0 (vehicle), 18, 36 or 54 mg/day. At each instillation, the second nostril was dosed immediately after the first nostril. The interval between subsequent instillations into both nostrils was 5 minutes when dosed 2 or 3 times per day.
The vehicle control group received 3 subsequent intranasal instillations of the vehicle into both nostrils (50 μL per nostril) with 5-minute intervals for 14 consecutive days.
The positive control group received a single subcutaneous injection of (+)MK-801 at 48 hours prior to the necropsy of the vehicle control and esketamine HCl-treated animals.
Each group of main study animals consisted of 12 female rats. Four satellite animals were added to the esketamine HCl-dosed groups of main study animals for TK purposes. The plasma exposure to esketamine was measured in these animals on the first and the last day of dosing at various time points up to and including 24 hours after the first instillation.
Due to logistic constraints associated with the whole body perfusion procedure of the animals at necropsy, a staggered start was applied to the study. Consequently, all 5 groups of main study animals were divided into three subgroups of 4 animals each. For each of these subgroups treatment started on a different day. The perfusion procedure is the is the same as described for the single dose study.
All vehicle- and esketamine HCl-treated animals were sacrificed at 48 hours after the last instillation. […] The brain tissue of the vehicle control-, positive control- and esketamine HCl-treated rats were processed at the same time and handled in the same way in batches of 4 animals per group.
as §1, §2, §3
All tissues showing gross abnormalities were examined […]. Histopathological examination was performed on 7 levels of brain tissue according to Bolon (2013. Toxicol. Pathol. 41(7), 1028-1048) from the vehicle control-, positive control-, and high dose esketamine HCl-treated groups in the single dose study, and in all groups in the repeated dose study.

NMDA receptor = conditions: cited from earlier work

CNC1(c2ccccc2Cl)CCCCC1=O (racemic) [ketamine, reference compound]
QC sample freeze/thaw stability ([1]; freeze (−20° C.)/thaw (ice-water bath)): 3 freeze (−20° C.)/thaw (ice-water bath) cycles
QC sample freeze/thaw stability ([1]; freeze (−20° C.)/thaw (room temperature)): 3 freeze (−20° C.)/thaw (room temperature) cycles
QC sample bench-top stability ([1]; human plasma, room temperature): 68.5 hours at room temp
QC sample long-term storage stability ([1]; human plasma, −20° C.): 1552 days at −20 °C
Processed sample stability ([1]; room temperature): 146.5 hours at room temperature
Whole Blood Stability ([1]; room temperature and ice-water bath (0-4° C.)): 120 minutes at room temperature and in an ice-water bath
Stock solution stability (spike solutions) ([1]; spike solutions, −20° C.): 610 days at −20 °C for ketamine/norketamine spike solutions
Stock solution stability ([1]; room temperature under white light): 6 h
Stock solution stability ([1]; −20° C.): 15100 h
ED50-value for the induction of neuronal vacuolation in the PCG/RSC [2]: 47.5 mg/kg body weight

CN[C@]1(c2ccccc2Cl)CCCCC1=O.Cl [esketamine HCl, (S)-2-(2-chlorophenyl)-2-(methylamino)cyclohexanone hydrochloride]
Maximum solubility expressed as base [3]: 180 mg esketamine base/mL
Duration of severely decreased activity with decubitus, bradypnea, ptosis and catalepsy (anesthesia) ([4]; 36 mg): 15 to 30 min
Clinical observation: Abnormal respiration ([4]; 36 mg): 22/24***
Clinical observation: Ataxia ([4]; 36 mg): 24/24***
Clinical observation: Catalepsy ([4]; 36 mg): 20/24***
Clinical observation: Chromodacryorrhea ([4]; 36 mg): 0/24
Clinical observation: Decreased general activity ([4]; 36 mg): 23/24***
Clinical observation: Decubitus ([4]; 36 mg): 23/24***
Clinical observation: Increased general activity ([4]; 36 mg): 24/24***
Clinical observation: Narrowed palpebral fissure ([4]; 36 mg): 7/24**
Clinical observation: Piloerection ([4]; 36 mg): 0/24
Clinical observation: Salivation (out of normal) ([4]; 36 mg): 23/24***
Clinical observation: audible respiration ([4]; 36 mg): 10/24***
Clinical observation: bradypnoea ([4]; 36 mg): 22/24***
Clinical observation: Abnormal respiration ([4]; 54 mg): 22/24***
Clinical observation: Ataxia ([4]; 54 mg): 24/24***
Clinical observation: Catalepsy ([4]; 54 mg): 23/24***
Clinical observation: Chromodacryorrhea ([4]; 54 mg): 0/24
Clinical observation: Decreased general activity ([4]; 54 mg): 23/24***
Clinical observation: Decubitus ([4]; 54 mg): 23/24***
Clinical observation: Increased general activity ([4]; 54 mg): 24/24***
Clinical observation: Narrowed palpebral fissure ([4]; 54 mg): 10/24***
Clinical observation: Piloerection ([4]; 54 mg): 0/24
Clinical observation: Salivation (out of normal) ([4]; 54 mg): 24/24***
Clinical observation: audible respiration ([4]; 54 mg): 3/24
Clinical observation: bradypnoea ([4]; 54 mg): 21/24***
Duration of ataxia (and hyperactivity) after the decrease in activity subsided ([4]; 54 mg, hydrochloride): 1.5 to 3 h and 1 to 3 h
Duration of severely decreased activity with decubitus, bradypnea, ptosis and catalepsy (anesthesia) ([4]; 54 mg, hydrochloride): 30 minutes to one hour and 30 minutes to an hour
Duration of ataxia (and hyperactivity) after the decrease in activity subsided ([4]; 72 mg): up to 3 hours or longer
Clinical observation: Abnormal respiration ([4]; 72 mg): 30/30***
Clinical observation: Catalepsy ([4]; 72 mg): 30/30***
Clinical observation: Chromodacryorrhea ([4]; 72 mg): 0/30
Clinical observation: Decreased general activity ([4]; 72 mg): 30/30***
Clinical observation: Decubitus ([4]; 72 mg): 30/30***
Clinical observation: Increased general activity ([4]; 72 mg): 29/30***
Clinical observation: Narrowed palpebral fissure ([4]; 72 mg): 22/30***
Clinical observation: Piloerection ([4]; 72 mg): 0/30
Clinical observation: Salivation (out of normal) ([4]; 72 mg): 29/30***
Clinical observation: audible respiration ([4]; 72 mg): 2/30
Clinical observation: bradypnoea ([4]; 72 mg): 30/30***
Mortality ([4]; single dose 72 mg, within 30 minutes after 4 instillations): two main study animals and two satellite TK animals died
Mortality ([4]; single dose up to 54 mg): No test article related mortality
Brain histopathology (neuronal necrosis, Olney lesions) ([4]; single dose up to 72 mg, 48 and 96 hours post-dose, hydrochloride): no morphological evidence of neuronal degeneration; also recorded: histopathological lesions were absent; also recorded: No signs of neuronal necrosis; also recorded: no neuropathological lesions were observed
Clinical observation: Abnormal respiration ([5]; 18 mg/day intranasal): 2/12
Clinical observation: Ataxia ([5]; 18 mg/day intranasal): 12/12***
Clinical observation: Chromodacryorrhea ([5]; 18 mg/day intranasal): 0/12
Clinical observation: Decreased general activity ([5]; 18 mg/day intranasal): 5/12
Clinical observation: Decubitus ([5]; 18 mg/day intranasal): 0/12
Clinical observation: Increased general activity ([5]; 18 mg/day intranasal): 12/12***
Clinical observation: Salivation (out of normal) ([5]; 18 mg/day intranasal): 12/12***
Clinical observation: audible respiration ([5]; 18 mg/day intranasal): 2/12
Clinical observation: bradypnoea ([5]; 18 mg/day intranasal): 0/12
Clinical observation: Abnormal respiration ([5]; 36 mg/day intranasal): 11/12***
Clinical observation: Ataxia ([5]; 36 mg/day intranasal): 12/12***
Clinical observation: Chromodacryorrhea ([5]; 36 mg/day intranasal): 0/12
Clinical observation: Decreased general activity ([5]; 36 mg/day intranasal): 12/12***
Clinical observation: Decubitus ([5]; 36 mg/day intranasal): 2/12
Clinical observation: Increased general activity ([5]; 36 mg/day intranasal): 12/12***
Clinical observation: Salivation (out of normal) ([5]; 36 mg/day intranasal): 12/12***
Clinical observation: audible respiration ([5]; 36 mg/day intranasal): 6/12**
Clinical observation: bradypnoea ([5]; 36 mg/day intranasal): 11/12***
Clinical observation: Abnormal respiration ([5]; 54 mg/day intranasal): 12/12***
Clinical observation: Ataxia ([5]; 54 mg/day intranasal): 12/12***
Clinical observation: Chromodacryorrhea ([5]; 54 mg/day intranasal): 0/12
Clinical observation: Decreased general activity ([5]; 54 mg/day intranasal): 12/12***
Clinical observation: Decubitus ([5]; 54 mg/day intranasal): 8/12***
Clinical observation: Increased general activity ([5]; 54 mg/day intranasal): 12/12***
Clinical observation: Salivation (out of normal) ([5]; 54 mg/day intranasal): 12/12***
Clinical observation: audible respiration ([5]; 54 mg/day intranasal): 6/12**
Clinical observation: bradypnoea ([5]; 54 mg/day intranasal): 12/12***
Mortality ([5]; up to 54 mg/day for 14 days): No test article related mortality occurred
Brain histopathology (neuronal necrosis, Olney lesions) ([5]; up to 54 mg/day, 48 hours after the last instillation, hydrochloride): no morphological evidence of neuronal degeneration; also recorded: no histopathological lesions were noted; also recorded: No histopathological lesions were found; also recorded: absence of neuronal necrosis

(+)MK-801 maleate
Potency of the (+)-enantiomer relative to the (−)-enantiomer (NMDA receptor): 7 times
